Assay results: article PMC5577244, “CD2068 potentially mediates multidrug efflux in Clostridium difficile” (Scientific Reports, 2017)

Target: T1, CD2068 (Clostridioides difficile, UniProt Q188D7)
T1 construct: gene CD630_20680; full coding region in pET28a (NcoI/EcoRI), C-terminal His6 tag kept; expressed in E. coli BL21(DE3) pLysS; inside-out membrane vesicles; ~60 kDa
Assay: vanadate-sensitive ATPase stimulation, inside-out membrane vesicles, phosphate release
Assay type: biochemical
Details: not given
Source text: vanadate-sensitive ATPase stimulation, inside-out membrane vesicles, phosphate release on CD2068

T1 sequence (Q188D7 entry or part of it): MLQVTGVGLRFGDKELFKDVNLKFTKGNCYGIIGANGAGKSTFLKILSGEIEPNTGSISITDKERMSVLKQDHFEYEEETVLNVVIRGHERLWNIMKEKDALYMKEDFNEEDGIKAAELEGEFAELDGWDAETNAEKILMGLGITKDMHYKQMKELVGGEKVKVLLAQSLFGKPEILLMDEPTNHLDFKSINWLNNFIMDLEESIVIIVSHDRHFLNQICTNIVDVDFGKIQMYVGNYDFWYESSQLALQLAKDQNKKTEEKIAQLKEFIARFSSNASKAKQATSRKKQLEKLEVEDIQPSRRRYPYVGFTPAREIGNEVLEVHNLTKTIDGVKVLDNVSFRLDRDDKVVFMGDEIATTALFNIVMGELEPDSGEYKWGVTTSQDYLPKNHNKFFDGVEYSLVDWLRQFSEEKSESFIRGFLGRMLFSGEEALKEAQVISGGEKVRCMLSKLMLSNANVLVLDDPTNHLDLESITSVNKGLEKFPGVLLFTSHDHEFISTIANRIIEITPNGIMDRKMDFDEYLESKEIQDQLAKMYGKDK

| SMILES | EC50 [µM] |
| --- | --- |
| CC1(C)S[C@@H]2[C@H](NC(=O)[C@H](N)c3ccccc3)C(=O)N2[C@H]1C(=O)O [Ampicillin] | 4.4 |
| CO[C@@]1(NC(=O)Cc2cccs2)C(=O)N2C(C(=O)O)=C(COC(N)=O)CS[C@@H]21 [Cefoxitin] | 7.6 ± 1 |
| Cc1onc(-c2ccccc2Cl)c1C(=O)N[C@@H]1C(=O)N2[C@@H]1SC(C)(C)[C@@H]2C(=O)O [Cloxacillin] | 3 |
| CC[C@H]1OC(=O)[C@H](C)[C@@H](O[C@H]2C[C@@](C)(OC)[C@@H](O)[C@H](C)O2)[C@H](C)[C@@H](O[C@@H]2O[C@H](C)C[C@H](N(C)C)[C@H]2O)[C@](C)(O)C[C@@H](C)/C(=N\OCOCCOC)[C@H](C)[C@@H](O)[C@]1(C)O [Roxithromycin] | 2.9 |
| CN[C@H](CC(C)C)C(=O)N[C@H]1C(=O)N[C@@H](CC(N)=O)C(=O)N[C@H]2C(=O)N[C@H]3C(=O)N[C@H](C(=O)N[C@H](C(=O)O)c4cc(O)cc(O)c4-c4cc3ccc4O)[C@H](O)c3ccc(c(Cl)c3)Oc3cc2cc(c3O[C@@H]2O[C@H](CO)[C@@H](O)[C@H](O)[C@H]2O[C@H]2C[C@](C)(N)[C@H](O)[C@H](C)O2)Oc2ccc(cc2Cl)[C@H]1O [Vancomycin] | 3.4 ± 1 |

Same assay, conditions: read-out: ATPase activity / SC50

| SMILES | EC50 [µM] |
| --- | --- |
| C[C@H]1COc2c(N3CCN(C)CC3)c(F)cc3c(=O)c(C(=O)O)cn1c23 [Levofloxacin] | 4.5 ± 1 |
